Assay results taken from US10815222B2, “Compounds for use in the treatment of kinetoplastid infection” (C.N.C.C.S. S.c.a.r.l. COLLEZIONE NAZIONALE DEI COMPOSTI …, priority 2016, dated 2020).

What follows are molecules tested on Bloodstream form of Trypanosoma brucei, strain Lister 427 (assay: Trypanosoma brucei growth inhibition assay (CellTiter-Glo, 24 h)). Settings: T. Brucei Growth Inibition Assay, class symbols; read-out: T. Brucei GI EC50.
Format: cell-based
Protocol: Bloodstream form of Trypanosoma brucei, strain Lister 427 (provided by Prof. Miguel Navarro, Instituto de Parasitologia y Biomedicina “Lopez-Neyra” Avda. Conocimiento S/N Parque Tecnologico Ciencias de la Salud—Spain; ref. Navarro M. and Cross G. A. M. Molecular and Cellular Biology, 1996, Vol. 16, No. 7, pp. 3615-3625) were grown in IMDM Iscove's Modified Dulbecco's Medium (SIGMA #17633) supplemented with: 3.024 g/l sodium bicarbonate, hypoxanthine 1 mM, thymidine 0.16 mM, bathocuprione sulfonic acid 0.05 mM, cysteine 1.5 mM, ß-mercaptoethanol […] and 10% foetal bovine serum (heat-inactivated at 56° C. for 30 min). Parasites were grown at 37° C. in flasks with vented caps in a 5% CO2 incubator to a maximum cell density of about 2×10^6/ml and diluted every two-three days.
The compounds of the invention were dissolved in DMSO and transferred to assay plates by acoustic droplet ejection (ATS-100, EDC Biosystems, USA) in order to obtain an appropriate concentration and to keep the concentration of DMSO below or equal to 0.25% in the final assay volume of 30 μL. 1500 parasites resuspended in 30 μL of culture medium were then transferred to each well of a 384-well plate.
After an incubation period of 24 hours at 37° C., each well is added 15 μl of CellTiter-Glo® Reagent (Promega) and incubated at room temperature. 5-10 min post incubation, the plate is read using a luminometer (ViewLux®). A known inhibitor of the growth of T. brucei was used as the reference positive control.
Molecule `O=C(Cc1c[nH]c2ccc(O)cc12)N1CCN(CCc2ccccc2)CC1c1ncc(-c2ccc3ccccc3c2)[nH]1` (stereo not drawn) has an EC50 of 1.01 to 5 µM.
For `COc1ccc2nc(C(F)(F)F)n(CC(=O)N3CC[C@@H](N(C)CC4CCOC4)C[C@H]3c3ncc(-c4cc5ccccc5nc4OC)[nH]3)c2c1` (stereo partly drawn), the EC50 was < 0.1 µM.
In the case of `COc1nc2ccccc2cc1-c1cnc(C2CN(CC3CCOC3)CCN2C(=O)CCc2n[nH]c3c2CCCC3)[nH]1` (stereo not drawn), the EC50 is reported as 1.01 to 5 µM.

Same assay, conditions: Trypanosoma brucei; T. Brucei Growth Inibition Assay, class symbols; read-out: T. Brucei GI EC50
`COc1nc2ccccc2cc1-c1cnc(C2CN(CC3CCOC3)CCN2C(=O)CS(=O)(=O)c2ccccc2)[nH]1` (stereo not drawn) was tested, and the EC50 was 1.01 to 5 µM.
Molecule `COc1nc2ccccc2cc1-c1cnc(C2CN(C)CCN2C(=O)Cc2c[nH]c3ncccc23)[nH]1` (stereo not drawn) has an EC50 of 1.01 to 5 µM.
`COc1nc2ccccc2cc1-c1cnc(C2CN(CC3CCOC3)CCN2C(=O)Cc2sc3ccccc3c2C)[nH]1` (stereo not drawn) gave an EC50 of 0.1 to 0.5 µM.
`COc1nc2ccccc2cc1-c1cnc(C2CN(CC3CC3)CCN2C(=O)CC2=C(C)NC3C=CC=CC23)[nH]1` (stereo not drawn) gave an EC50 of 0.1 to 0.5 µM.
Work on `Cc1csc(CC(=O)N2CCN(CC3CC3)CC2c2ncc(-c3ccc4ccccc4c3)[nH]2)n1` (stereo not drawn) yielded an EC50 of 1.01 to 5 µM.
Molecule `O=C(Cc1c[nH]c2ccc(O)cc12)N1CCN(CC2CC2)CC1c1ncc(-c2ccc3ccccc3c2)[nH]1` (stereo not drawn) has an EC50 of 1.01 to 5 µM.
For `Cn1cc(CC(=O)N2CCN(CC3CC3)CC2c2ncc(-c3ccc4ccccc4c3)[nH]2)c2ccccc21` (stereo not drawn), the EC50 was 1.01 to 5 µM.
`Cc1[nH]c2ccccc2c1CC(=O)N1CCN(CC2CC2)CC1c1ncc(-c2ccc3ccccc3c2)[nH]1` (stereo not drawn) gave an EC50 of 0.1 to 0.5 µM.
`O=C(Cc1n[nH]c2ccccc12)N1CCN(CC2CC2)CC1c1ncc(-c2ccc3ccccc3c2)[nH]1` (stereo not drawn) was tested, and the EC50 was 1.01 to 5 µM.
`COc1nc2ccccc2cc1-c1cnc(C2CN(Cc3ccccc3)CCN2C(=O)CC2=C(C)NC3C=CC=CC23)[nH]1` (stereo not drawn) showed an EC50 of 0.1 to 0.5 µM.
In the case of `O=C(Cc1c[nH]c2ccc(O)cc12)N1CCN(Cc2ccccc2)CC1c1ncc(-c2ccc3ccccc3c2)[nH]1` (stereo not drawn), the EC50 is reported as 1.01 to 5 µM.
`Cn1cc(CC(=O)N2CCN(Cc3ccccc3)CC2c2ncc(-c3ccc4ccccc4c3)[nH]2)c2ccccc21` (stereo not drawn) gave an EC50 of 1.01 to 5 µM.
Molecule `O=C(Cc1n[nH]c2ccccc12)N1CCN(Cc2ccccc2)CC1c1ncc(-c2ccc3ccccc3c2)[nH]1` (stereo not drawn) has an EC50 of 1.01 to 5 µM.
`Cc1[nH]c2ccccc2c1CC(=O)N1CCN(Cc2ccccc2)CC1c1ncc(-c2ccc3ccccc3c2)[nH]1` (stereo not drawn) gave an EC50 of 1.01 to 5 µM.
`Cc1csc(CC(=O)N2CCN(Cc3ccccc3)CC2c2ncc(-c3ccc4ccccc4c3)[nH]2)n1` (stereo not drawn) showed an EC50 of 1.01 to 5 µM.
`CCCCCCN1CCN(C(=O)CC2=C(C)NC3C=CC=CC23)C(c2ncc(-c3cc4ccccc4nc3O)[nH]2)C1` (stereo not drawn) showed an EC50 of 1.01 to 5 µM.
Work on `CCCCCCN1CCN(C(=O)CC2=C(C)NC3C=CC=CC23)C(c2ncc(-c3cc4ccccc4nc3OC)[nH]2)C1` (stereo not drawn) yielded an EC50 of 0.1 to 0.5 µM.
`CCCCCCN1CCN(C(=O)Cc2n[nH]c3ccccc23)C(c2ncc(-c3ccc4ccccc4c3)[nH]2)C1` (stereo not drawn) was tested, and the EC50 was 1.01 to 5 µM.
With `CCCCCCN1CCN(C(=O)Cc2c(C)[nH]c3ccccc23)C(c2ncc(-c3ccc4ccccc4c3)[nH]2)C1` (stereo not drawn) the EC50 was 0.51 to 1 µM.
For `CCCCCCN1CCN(C(=O)Cc2c[nH]c3ccc(O)cc23)C(c2ncc(-c3ccc4ccccc4c3)[nH]2)C1` (stereo not drawn), the EC50 was 1.01 to 5 µM.
`CCCCCCN1CCN(C(=O)Cc2cn(C)c3ccccc23)C(c2ncc(-c3ccc4ccccc4c3)[nH]2)C1` (stereo not drawn) showed an EC50 of 1.01 to 5 µM.
`CCCCCCN1CCN(C(=O)Cc2c[nH]c3cccnc23)C(c2ncc(-c3ccc4ccccc4c3)[nH]2)C1` (stereo not drawn) was tested, and the EC50 was 1.01 to 5 µM.
`CN1CCN(C(=O)Cc2c[nH]c3ncccc23)C(c2ncc(-c3ccc4ccccc4c3)[nH]2)C1` (stereo not drawn) was tested, and the EC50 was 1.01 to 5 µM.
In the case of `Cn1cc(CC(=O)N2CCN(CC3CCOC3)CC2c2ncc(-c3ccc4ccccc4c3)[nH]2)c2ccccc21` (stereo not drawn), the EC50 is reported as 0.1 to 0.5 µM.
Molecule `CN1CCN(C(=O)Cc2cn(C)c3ccccc23)C(c2ncc(-c3ccc4ccccc4c3)[nH]2)C1` (stereo not drawn) has an EC50 of 1.01 to 5 µM.
`O=C(Cc1n[nH]c2ccccc12)N1CCN(CCc2ccccc2)CC1c1ncc(-c2ccc3ccccc3c2)[nH]1` (stereo not drawn) gave an EC50 of 1.01 to 5 µM.
In the case of `O=C(Cc1n[nH]c2ccccc12)N1CCN(CC2CCOC2)CC1c1ncc(-c2ccc3ccccc3c2)[nH]1` (stereo not drawn), the EC50 is reported as 1.01 to 5 µM.
Work on `Cc1[nH]c2ccccc2c1CC(=O)N1CCN(CCc2ccccc2)CC1c1ncc(-c2ccc3ccccc3c2)[nH]1` (stereo not drawn) yielded an EC50 of 0.51 to 1 µM.
Molecule `Cc1csc(CC(=O)N2CCN(CCc3ccccc3)CC2c2ncc(-c3ccc4ccccc4c3)[nH]2)n1` (stereo not drawn) has an EC50 of 1.01 to 5 µM.
With `O=C(Cc1c[nH]c2ccc(O)cc12)N1CCN(CC2CCOC2)CC1c1ncc(-c2ccc3ccccc3c2)[nH]1` (stereo not drawn) the EC50 was 0.51 to 1 µM.
For `COc1ccc2[nH]cc(CC(=O)N3CCN(CC4CCOC4)CC3c3ncc(-c4cc5ccccc5nc4OC)[nH]3)c2c1` (stereo not drawn), the EC50 was 0.1 to 0.5 µM.
For `COc1ccc2[nH]c(C)c(CC(=O)N3CCN(C)CC3c3ncc(-c4ccc5ccccc5c4)n3C)c2c1` (stereo not drawn), the EC50 was 1.01 to 5 µM.
`COc1ccc2[nH]c(C)c(CC(=O)N3CCN(C)CC3c3ncc(-c4ccccc4)[nH]3)c2c1` (stereo not drawn) showed an EC50 of 1.01 to 5 µM.
Molecule `COc1ccc2c(CC(=O)N3CCN(CC4CCOC4)CC3c3ncc(-c4cc5ccccc5nc4OC)[nH]3)coc2c1` (stereo not drawn) has an EC50 of 0.51 to 1 µM.
Work on `O=C(Cc1nc2ccccc2o1)N1CCN(CC2CCOC2)CC1c1ncc(-c2ccc3ccccc3c2)[nH]1` (stereo not drawn) yielded an EC50 of 0.51 to 1 µM.
With `O=C(Cc1nc2ccccc2o1)N1CCN(CC2CC2)CC1c1ncc(-c2ccc3ccccc3c2)[nH]1` (stereo not drawn) the EC50 was 1.01 to 5 µM.
`COc1ccc2c(c1)C(CC(=O)N1CCN(CC3CC3)CC1c1ncc(-c3ccc4ccccc4c3)[nH]1)C(=O)N2` (stereo not drawn) showed an EC50 of 1.01 to 5 µM.
In the case of `COc1ccc2c(c1)C(CC(=O)N1CCN(Cc3ccccc3)CC1c1ncc(-c3ccc4ccccc4c3)[nH]1)C(=O)N2` (stereo not drawn), the EC50 is reported as 0.51 to 1 µM.
`CCCCCCN1CCN(C(=O)CC2C(=O)Nc3ccc(OC)cc32)C(c2ncc(-c3ccc4ccccc4c3)[nH]2)C1` (stereo not drawn) showed an EC50 of 1.01 to 5 µM.
`CNC(=O)CCCN1CCN(C(=O)Cc2c(C)[nH]c3ccc(OC)cc23)C(c2ncc(-c3ccc4ccccc4c3)[nH]2)C1` (stereo not drawn) was tested, and the EC50 was 0.1 to 0.5 µM.
`COc1ccc2[nH]c(C)c(CC(=O)N3CCN(CCCC(N)=O)CC3c3ncc(-c4ccc5ccccc5c4)[nH]3)c2c1` (stereo not drawn) showed an EC50 of 0.1 to 0.5 µM.
`COc1ccc2c(c1)C(CC(=O)N1CCN(CC3CCOC3)CC1c1ncc(-c3ccc4ccccc4c3)[nH]1)C(=O)N2` (stereo not drawn) showed an EC50 of 1.01 to 5 µM.
Work on `COc1ccc2c(c1)C(CC(=O)N1CCN(CCc3ccccc3)CC1c1ncc(-c3ccc4ccccc4c3)[nH]1)C(=O)N2` (stereo not drawn) yielded an EC50 of 0.51 to 1 µM.
For `COc1ccc2c(c1)C(CC(=O)N1CCN(C)CC1c1ncc(-c3ccc4ccccc4c3)[nH]1)C(=O)N2` (stereo not drawn), the EC50 was 1.01 to 5 µM.
With `CCC(=O)CCCN1CCN(C(=O)Cc2ccccc2)C(c2ncc(-c3cc4ccccc4nc3OC)[nH]2)C1` (stereo not drawn) the EC50 was 1.01 to 5 µM.
`CCC(=O)CCCN1CCN(S(=O)(=O)c2ccc3ccccc3c2)C(c2ncc(-c3ccc4ccccc4c3)[nH]2)C1` (stereo not drawn) gave an EC50 of 1.01 to 5 µM.
In the case of `CCC(=O)CCCN1CCN(C(=O)c2cncs2)C(c2ncc(-c3ccc4ccccc4c3)[nH]2)C1` (stereo not drawn), the EC50 is reported as 1.01 to 5 µM.
For `CCC(=O)CCCN1CCN(C(=O)C2CCN(C)CC2)C(c2ncc(-c3ccc4ccccc4c3)[nH]2)C1` (stereo not drawn), the EC50 was 1.01 to 5 µM.
In the case of `COc1ccc2nc(O)cc(C(=O)N3CCN(CC4CCOC4)CC3c3ncc(-c4cc5ccccc5nc4OC)[nH]3)c2c1` (stereo not drawn), the EC50 is reported as 1.01 to 5 µM.
Work on `COc1ccc2c(c1)[C@H](CC(=O)N1CCN(C)CC1c1ncc(-c3ccc4ccccc4c3)[nH]1)C(=O)N2` (stereo partly drawn) yielded an EC50 of 1.01 to 5 µM.
`COc1nc2ccccc2cc1-c1cnc(C2CN(CC3CCOC3)CCN2C(=O)c2cc3cc(OCc4ccccc4)ccc3[nH]2)[nH]1` (stereo not drawn) gave an EC50 of 1.01 to 5 µM.
`CO[C@@](C(=O)N1CCN(C)C[C@@H]1c1ncc(-c2ccc3ccccc3c2)[nH]1)(c1ccccc1)C(F)(F)F` showed an EC50 of 1.01 to 5 µM.
For `CN1CCN(C(=O)Cc2ccccc2)[C@H](c2ncc(-c3ccc4ccccc4c3)[nH]2)C1`, the EC50 was 1.01 to 5 µM.
With `CO[C@](C(=O)N1CCN(C)C[C@@H]1c1ncc(-c2ccc3ccccc3c2)[nH]1)(c1ccccc1)C(F)(F)F` the EC50 was 1.01 to 5 µM.
